Values quoted from earlier work in patent US8569299B2, “Prolylcarboxypeptidase inhibitors” (Merck Sharp & Dohme Corp, priority 2010, dated 2013).
Where two headings read alike, the source gives them in different places. Where no end group is shown, it is not given here.

Experiments:
[1] = overnight fasted animals, 2.5 ug
[2] = in vivo
[3] = intracerebroventricular, rats
[4] = systemic administration, obese leptin deficient mice

| Molecule | weight loss of body weight for drug compared to placebo [2] | also measured |
| --- | --- | --- |
| alpha-melanocyte-stimulating hormone (SYSMEHFRWGKPV; ends and bridges not checked; UniProt P01189 138-150, looked up) [α-MSH1-13, peptide hormone derived from POMC, substrate of PRCP] |  | reduction in food intake relative to control animals [1]: 40% |
| CC(C)CC(N(C)C)C1(c2ccc(Cl)cc2)CCC1 (stereo not shown) [sibutramine] | 5%-10% |  |
| CC(C)(N)Cc1ccccc1 [phentermine] | 5%-10% |  |
| CCN[C@@H](C)Cc1cccc(C(F)(F)F)c1 [dexfenfluramine] | 5%-10% |  |
| CCCCCCCCCCC[C@@H](C[C@@H]1OC(=O)[C@H]1CCCCCC)OC(=O)[C@H](CC(C)C)NC=O [orlistat] | 5%-10% |  |
| t-butyl carbamate-prolyl prolinal [BPP] |  | overnight food intake [3]: suppression of overnight food intake; overnight food intake [4]: suppression of overnight food intake |
